A short description of series [1]: Biorelevant dissolution testing (solubility/precipitation): SGF (0.1N HCl) then transfer to SIF (FaSSIF). Type of series: physicochemical. Conditions: for Total Drug CmaxGB: SGF (0.1N HCl, pH=1), 0-30 min, equivalent to 2.0 mg/mL of compound I in 50 mL; for Total Drug AUC 35-210 FaSSIF / Total Drug C210: SIF/FaSSIF; for Total Drug AUC 35-210 FaSSIF: 35-210 min; for Total Drug C210: 210 min; for Total Drug CmaxFaSSIF: after transfer at 30 min into 50 mL SIF (2.24 mg/mL FaSSIF in 100 mM PBS). The procedure:
Appropriate amounts (equivalent to 2.0 mg/mL of compound I) of composition of invention were added to 50 mL of 0.1N HCl and stirred. The aliquots of mixture were withdrawn at 10 and 25 minutes, vortexed for 10 seconds and the dissolved amount was measure by analytical HPLC using external reference standards at a wavelength of 240 nm. After 30 minutes, the entire content of sample from SGF incubation was transferred into 50 mL of SIF media with stirring, and the dissolved amount was measured at 35, 50, 75, 120 and 210 minutes.

Series [2] can be described thus: Solubility of Compound I (preformulation, stated in words). Type of series: physicochemical. The note with it: b16: in vitro, crystalline form.
A short description of series [3]: Permeability of Compound I (stated in words). Type of series: in vitro ADME.
Series [4] is described as follows: Oral exposure of suspension formulations (preformulation studies). Type of series: in vivo. Conditions: increased with 0.5% HPMC, depends on fed/fasted state.

The structures appear in SMILES notation.

As for `CCn1cc(C(=O)N2CCOCC2)c(=O)c2cc(NC3Cc4ccccc4C3)cnc21` [100% BNC210 SD], in series [1] (AUC 35-210 FaSSIF relative to BNC210 API), the “Increase in AUC over API AUC” value came to 2. In addition, in series [1], the “Total Drug CmaxGB” value was determined as 158 μgA/mL, the “Total Drug AUC 35-210 FaSSIF” value is recorded as 8700 min * μgA/mL, the “Total Drug C210” value is listed as 60 μgA/mL and the “Total Drug CmaxFaSSIF” value is on record as 68 μgA/mL.
As to `CCn1cc(C(=O)N2CCOCC2)c(=O)c2cc(NC3Cc4ccccc4C3)cnc21` [BNC210 API], in series [1], the “Total Drug CmaxGB” value came to 88 μgA/mL, the “Total Drug AUC 35-210 FaSSIF” value was 4300 min * μgA/mL, the “Total Drug C210” value stood at 29 μgA/mL and the “Total Drug CmaxFaSSIF” value is 32 μgA/mL. Further, the Solubility entry in series [2] (listed as Compound I) is “poorly soluble”. Further, the Solubility result in series [2] (listed as compound I) is “poor in vitro solubility”. For the same compound, in series [3], the Permeability entry was “moderate permeability”. Moreover, the Oral exposure result in series [4] was “low oral exposure”.

Source of the values: patent publication US12409140B2, “Therapeutic formulations and uses thereof” (Bionomics Limited, priority 2019, dated 2025).
